Assay [1] has as its system Madin–Darby canine kidney (MDCK) epithelial cell line. Briefly: Cytotoxicity on proliferating cells, crystal violet assay, OD590. In kind it is cell-based. Conditions: Canis lupus familiaris, 24 h treatment, read-out: EC50 ± SEM MDCK. As to the method: (§1) MDCK and RAT cells were cultured in DMEM with 10% FBS at 37 °C in a 5% CO2 atmosphere as described previously. , To assess the toxic effects of the compounds on proliferating cells, cells were seeded in 24-well plates for 24 h to reach ∼15% confluence, and cells were treated in triplicate with increasing concentrations of the isolated compounds for an additional 24 h. Cells were washed with 1× PBS, fixed in staining solution (0.5% crystal violet, 20% methanol) for 10 min, and gently washed five times in 1× PBS. The fixed cells were then dissolved in lysis solution (0.1 M sodium citrate, 25% ethanol, pH 4.2) for 30 min, transferred to a 96-well plate in H2O, and the OD^590 was determined. EC50 values were determined using GraphPad Prism software and the dose–response fit equation. The EC50 values were determined from two independent experiments. Additionally, the impact of the isolated substances on the morphology of the HeLa adenocarcinoma cell line and primary human skin fibroblasts was examined by using fluorescence microscopy. Cells were cultured in DME medium supplemented with 10% FCS (Gibco, Invitrogen, Carlsbad, USA) on glass coverslips in 24-well plates until reaching approximately 50% confluence. The cells were treated with varying concentrations of isolated compounds dissolved in DMSO. Wells containing DMEM with DMSO served as the negative control. After 24 h cultivation, the cells were incubated with MitoTracker Red CMXRos (10 min) to label mitochondria, then fixed with 3.7% paraformaldehyde in PBS (20 min, room temperature), permeabilized with 0.1% Triton X-100 in PBS, and blocked with 1% BSA in PBS. The cells were then stained with Phalloidin-Alexa Fluor488 conjugate. All fluorescence reagents were purchased from Molecular Probes, Invitrogen, Carlsbad, CA, USA. Nuclei were stained with Fluoroshield DAPI (Sigma-Aldrich), and cells were examined using an IX71 microscope equipped with a DP70 camera and a 40× objective. Assays were performed at concentrations of 5, 25, 50, 100, and 125 μM.

Assay [2] concerns RAT2 fibroblast cell line. The assay is described as above. The following applies: 24 h treatment, read-out: EC50 ± SEM RAT2. The assay is classed as cell-based. As to the method: as §1
The subject of assay [3] is primary human skin fibroblasts. Briefly: Effect on cell morphology, fluorescence microscopy (MitoTracker Red CMXRos, Phalloidin, DAPI). In kind it is cell-based. The following applies: 24 h; for concentration at which effects on morphology / mitochondrial signal were observed, fibroblasts: tested at 5, 25, 50, 100, 125 μM. The procedure: as §1
Assay [4] relates to HeLa adenocarcinoma cell line. The description is as above. In kind it is cell-based. The following applies: 24 h; for concentration at which effects on morphology / mitochondrial signal were observed, HeLa cells: tested at 5, 25, 50, 100, 125 μM. The procedure:
as §1

The test system of a further assay is T. b. evansi AnTat 3/3. Briefly: Anti-trypanosomal activity, resazurin (AB assay), bloodstream form. The assay is classed as cell-based, T. brucei evansi. Conditions: Trypanosoma brucei, 72 h, axenic, 48 h + 24 h resazurin. The procedure: (§2) The bloodstream forms of T. b. gambiense LiTat 1.3, T. b. brucei 427, and T. b. evansi AnTat 3/3 were grown in HMI-11 medium pH 7.3 supplemented with 36 mM sodium bicarbonate, 100 U/mL penicillin/streptomycin, and 10% fetal bovine serum at 37 °C and 5% CO2. The bloodstream form of Trypanosoma congolense IL3000 (generous gift from Liam Morrison) was cultured in TcBSF-1 medium pH 7.3 supplemented with 26 mM sodium bicarbonate, 25 mM HEPES, 5.5 mM glucose, 1 mM sodium pyruvate, 0.04 mM adenosine, 0.1 mM hypoxanthine, 0.02 mM thymidine, 0.02 mM bathocuproine, 2 mM L-glutamine, 0.2 mM 2-mercaptoethanol, 100 U/ml penicillin/streptomycin, and 20% goat serum New Zealand origin (Gibco) at 34 °C, 5% CO2. The assay for anti-trypanosomal activity was performed using the resazurin sodium salt dye (AB Assay) according to the published protocol in a 96-well plate format. Parasites at a number of 5 × 10^3 per well (T. b. brucei and T. b. gambiense) or 1 × 10^4 per well (T. b. evansi) were incubated with different drug concentrations (2-fold serial dilutions) in a volume of 200 μL of the medium. Medium with 1% DMSO (the highest concentration of the solvent used in the assay) was used to confirm no effect of the solvent on the cell growth. The plates were incubated for 48 h at the appropriate temperature. Then, 20 μL of resazurin sodium salt solution (0.125 mg/mL in 1× PBS, pH 7. 4) was added to each well, and the cells were incubated for another 24 h under the same conditions. The fluorescence signal was quantified using a Tecan Infinite M200 plate reader at excitation and emission wavelengths of 560 and 590 nm, respectively. The EC50 values were calculated using GraphPad Prism 9.5.1 by nonlinear regression with a variable slope. Each EC50 value is the mean ± standard error of the mean of three separate experiments performed in duplicate.
(The colour change of resazurin is a common sign of viable cells or microbes.)

The test system of assay [5] is T. b. gambiense LiTat 1.3. Described as above. The assay is classed as cell-based, T. brucei gambiense. The following applies: Trypanosoma brucei, 72 h, axenic, 48 h + 24 h resazurin. As to the method:
as §2

For another assay, the system named is C. neoformans CCF 1081. Briefly: Minimum inhibitory concentration (MIC) testing, serial binary dilution in 96-well plates. In kind it is cell-based. Conditions: Cryptococcus neoformans, CCF1081; 24 h in the dark; n.d. = activity not detected; highest tested concentration 66.7 μM. As to the method: (§3) Minimum inhibitory concentration (MIC) testing of the extracts was performed using 96-well polypropylene plates against four different microorganisms: the Gram-positive bacterium K. rhizophila ATCC 9341, the Gram-negative bacterium E. coli ATCC 3988, and the yeasts C. albicans CCM 8215 and C. neoformans CCF 1081.
(§4) A working inoculum of each microorganism was prepared as follows: for E. coli and K. rhizophila, the inoculum was grown in LB medium (LB Broth, 25 g/L, incubated at 36 °C); for C. albicans and C. neoformans, YM6.3 medium (maltose extract 10 g, glucose 4 g, yeast extract 4 g per 1 L distilled water, incubated at 24 °C) with a cell concentration of approximately 5 × 10^5 cells/mL for all microorganisms was used.
(§5) Chloramphenicol served as a positive control for bacteria, while cycloheximide was used as a positive control for fungi. The gradient of the test substances was established by serial binary dilution across the wells. The MIC was determined by identifying the lowest concentration at which no live microorganisms were present. Cultivation was performed in the dark for 24 h.

In a further assay the test system is K. rhizophila ATCC 9341. The assay is described as above. In kind it is cell-based. The following applies: Kocuria rhizophila, ATCC9341; 24 h in the dark; lowest concentration with no live microorganisms. The procedure: as §3, §4, §5
A further assay relates to E. coli ATCC 3988. The assay is described as above. In kind it is cell-based. Conditions: Escherichia coli, ATCC3988; 24 h in the dark; lowest concentration with no live microorganisms. As to the method:
as §3, §4, §5

A further assay concerns C. albicans CCM 8215. The assay is described as above. The assay is classed as cell-based. Conditions: Candida albicans, CCM8215; 24 h in the dark; n.d. = activity not detected; highest tested concentration 66.7 μM. The procedure:
as §3, §4, §5

≈ marks a conversion by molar mass, not a printed value. Where two headings read alike, the source gives them in different places. Where only a bound is given, the exact number is not on record here.

The term EC50 denotes the concentration that produces a half-maximal response. Broadly, the MIC is the smallest concentration in the dilution series that meets the test's criterion for growth inhibition. As to `COc1cc(O)c2c(c1)C(=O)C1=C(C2=O)[C@@H](OC(C)=O)[C@@H](O)[C@@H](C)O1` [Compound 1, (2R,3S,4R)-3,6-dihydroxy-8-methoxy-2-methyl-5,10-dioxo-3,4,5,10-tetrahydro-2H-benzo[g]chromen-4-yl acetate], the EC50 stood at 100 nM in [1]; 60 nM in assay [2]; 100 nM in assay [2] (Rat2, 24 h); 30 nM in the assay with T. b. evansi AnTat 3/3; 40 nM in assay [5]. For the same compound, the “concentration at which effects on morphology / mitochondrial signal were observed, fibroblasts” value in assay [3] turned out to be 5 μM. Moreover, in assay [4], the “concentration at which effects on morphology / mitochondrial signal were observed, HeLa cells” value is 125 μM. In addition, the MIC in the assay on C. neoformans CCF 1081 was found to be 33.3 µM; with K. rhizophila ATCC 9341, 1 µM; against E. coli ATCC 3988 it was 1 µM; against C. albicans CCM 8215, 33.3 µM.

Turning to `COc1cc(O)c2c(c1)C(=O)C1=C(C[C@@H](OC(C)=O)[C@@H](C)O1)C2=O` [Compound 7, (2R,3R)-6-hydroxy-8-methoxy-2-methyl-5,10-dioxo-3,4,5,10-tetrahydro-2H-benzo[g]chromen-3-yl acetate], the EC50 is 5600 ± 1100 nM in assay [1]; 6000 ± 300 nM in assay [2] (Rat2, 24 h); 700 nM in the assay with T. b. evansi AnTat 3/3; 5700 nM in assay [5]. Moreover, the “concentration causing complete loss of live adherent cells, fibroblasts” value in assay [3] was found to be 125 µM. In addition, the “concentration at which effects on morphology / mitochondrial signal were observed, fibroblasts” value in assay [3] is given as more than 25 μM. In addition, in [4], the “concentration at which effects on morphology / mitochondrial signal were observed, HeLa cells” value is on record as more than 125 μM. Moreover, the MIC against C. neoformans CCF 1081 was found to be 33.3 µM; in the assay with K. rhizophila ATCC 9341, 4.2 µM; in the assay on E. coli ATCC 3988, 4.2 µM; against C. albicans CCM 8215, 33.3 µM.

Consider `COc1cc(O)c2c(c1)C(=O)C1=C(C2=O)[C@@H](O)[C@@H](OC(C)=O)[C@@H](C)O1` [Compound 5, (2R,3R,4R)-4,6-dihydroxy-8-methoxy-2-methyl-5,10-dioxo-3,4,5,10-tetrahydro-2H-benzo[g]chromen-3-yl acetate], for which the concentration for a half-maximal effect (EC50) worked out at 100 nM in assay [1]; 30 nM in [2] (Rat2, 24 h); 40 nM in the assay on T. b. evansi AnTat 3/3; 30 nM in [5]. In addition, the “concentration at which effects on morphology / mitochondrial signal were observed, fibroblasts” value in [3] was found to be 5 μM. Moreover, the “concentration at which effects on morphology / mitochondrial signal were observed, HeLa cells” value in assay [4] stood at 125 μM. The MIC against C. neoformans CCF 1081 worked out at 33.3 µM; in the assay with K. rhizophila ATCC 9341 it was 2.1 µM; against E. coli ATCC 3988, 1 µM; against C. albicans CCM 8215, 66.7 µM.

Take `COc1cc(O)c2c(c1)C(=O)C1=C(C2=O)[C@H](O)[C@@H](O)[C@@H](C)O1` (relative stereo) [Compound 3, (2R,3R,4S)-3,4,6-trihydroxy-8-methoxy-2-methyl-3,4-dihydro-2H-benzo[g]chromene-5,10-dione]: the concentration giving a half-maximal response (EC50) in [1] came to 4700 ± 600 nM; in assay [2] (Rat2, 24 h), 5100 ± 700 nM; in the assay on T. b. evansi AnTat 3/3, 4200 nM; in assay [5], 4100 nM. Further, the “concentration at which effects on morphology / mitochondrial signal were observed, fibroblasts” value in assay [3] was determined as 125 μM. Also, the “concentration causing complete loss of live adherent cells, HeLa cells” value in [4] was 125 µM. Also, the “concentration at which effects on morphology / mitochondrial signal were observed, HeLa cells” value in assay [4] is 25 μM. In addition, the MIC in the assay on C. neoformans CCF 1081 was more than 66.7 µM; in the assay with K. rhizophila ATCC 9341, 8.3 µM (≈ 2.54 µg/mL); in the assay on E. coli ATCC 3988, 2.1 µM (≈ 0.643 µg/mL); with C. albicans CCM 8215, more than 66.7 µM.

Values taken from paper PMC12163684, “Gunacins: Novel Benzo[g]chromene Derivatives from the Fungus Exobasidium sp. and Their Potent Anti-Leishmania and Trypanosoma Activities” (ACS Omega, 2025).
